Experimental data taken from the Deep4Chem optical property database.

Test: solvent given as SMILES

SMILES: F[B-]1(F)OC(c2ccccc2)=Cc2cc(Cl)nc[n+]21
- absorption maximum (in C1CCOC1): 374 nm
- absorption maximum (in CC#N): 371 nm
- absorption maximum (in CCCCCC): 373 nm
- absorption maximum (in Cc1ccccc1): 377 nm
- absorption maximum (in ClC(Cl)Cl): 376 nm
- absorption maximum (in ClCCl): 375 nm

SMILES: CCOC(=O)C(C(=O)OCC)C1=[N+]2C(=C(c3ccc(C)cc3)c3ccc(C(C(=O)OCC)C(=O)OCC)n3[B-]2(F)F)C=C1
- absorption maximum (in C1CCCCC1): 515 nm
- absorption maximum (in C1CCOC1): 512 nm
- absorption maximum (in CCOC(C)=O): 510 nm
- absorption maximum (in CO): 509 nm
- absorption maximum (in Cc1ccccc1): 514 nm
- absorption maximum (in ClC(Cl)Cl): 513 nm

SMILES: CCC1=C(C)C(=O)n2c1cc1c(C)cc(C)n1c2=O
- absorption maximum (in CC#N): 409 nm
- absorption maximum (in CC(C)=O): 412 nm
- absorption maximum (in CO): 420 nm
- absorption maximum (in CS(C)=O): 420 nm
- absorption maximum (in ClC(Cl)Cl): 420 nm
- absorption maximum (in c1ccccc1): 423 nm

SMILES: O=[N+]([O-])c1ccc2c(ccc3[n+]2[B-](F)(F)n2c-3cc3c4ccccc4c4ccccc4c32)c1
- absorption maximum (in ClCCl): 530 nm

SMILES: COc1ccc(C2=Cc3cc4ccccc4cc3P2(=O)c2ccccc2)cc1 (stereo not given)
- absorption maximum (in ClCCl): 395 nm

SMILES: Cc1ccc(/C2=c3\cc/c(o3)=C(\c3ccc(C)cc3)c3ccc([nH]3)-c3ccc4n3[B-](F)(F)[N+]3=C(C=CC3=C4c3ccco3)c3ccc2[nH]3)cc1
- absorption maximum (in ClC(Cl)Cl): 722 nm

SMILES: COc1cc2c(cc1-c1ccc(C=O)cc1)Cc1c3c(c4c(c1-2)-c1cc(OC)c(-c2ccc(C=O)cc2)cc1C4)C(=O)N(CCC(C)C)C3=O
- absorption maximum (in C1CCOC1): 414 nm

SMILES: O=C1c2cccc3c(C#CC#Cc4ccc5c6c(cccc46)C(=O)N(c4ccccc4)C5=O)ccc(c23)C(=O)N1c1ccccc1
- absorption maximum (in ClCCl): 386 nm

SMILES: COc1ccc(C2=C(c3ccc(OC)cc3)c3cccc4c5c(cc(c34)O2)=NC2C=C(Br)C(Br)=CC2N=5)cc1 (stereo not given)
- absorption maximum (in ClCCl): 526 nm

SMILES: CC(C)[Si](C#Cc1c2ccccc2c(C#C[Si](C(C)C)(C(C)C)C(C)C)c2nc3c(nc12)Cc1ccccc1-3)(C(C)C)C(C)C
- absorption maximum (in CCCCCC): 486 nm

SMILES: COc1ccc(-c2ccc3c(c2)c2cc(-c4ccc(OC)cc4)ccc2n3-c2ccc(C(=O)c3ccc4sc5ccccc5c4c3)nc2)cc1
- absorption maximum (in Cc1ccccc1): 390 nm

SMILES: COc1ccc(C2=[N+]3C(=Nc4c5c6cc(OC)c(OC)c(OC)c6c6cc(C(C)(C)C)ccc6c5c(-c5ccc(OC)cc5)n4[B-]3(F)F)c3c2c2ccc(C(C)(C)C)cc2c2c(OC)c(OC)c(OC)cc32)cc1
- absorption maximum (in Cc1ccccc1): 745 nm

SMILES: COc1ccc(-c2c(-c3ccc(C)cc3)c3n(c2-c2ccc(C)cc2)[B-](F)(F)[N+]2=C(c4ccc(C)cc4)C(/C=C/C(=O)OC4CC[C@@]5(C)C(=CC[C@H]6[C@@H]7CC[C@H]([C@H](C)CCCC(C)C)[C@@]7(C)CC[C@@H]65)C4)=C(c4ccc(C)cc4)C2=N3)cc1 (stereo not given in full)
- absorption maximum (in ClC(Cl)Cl): 662 nm

SMILES: CCCN(CCC)CCC
- absorption maximum (in CCCCCC): 199 nm

SMILES: CN1CCN(c2cccc(/C=C/c3ncc(-c4ccc(OCc5ccccc5)c(OCc5ccccc5)c4)o3)c2)CC1
- absorption maximum (in ClCCl): 354 nm

SMILES: CC1(C)c2ccccc2N(c2ccc3c(c2)c2ccccc2n2c4ccccc4nc32)c2ccccc21
- absorption maximum (in Cc1ccccc1): 376 nm

SMILES: CN(C)c1ccc(-c2nc3c(c4c2-c2ccc(C#N)cc2CC4)-c2ccc(C#N)cc2CC3)cc1
- absorption maximum (in C1CCOC1): 344 nm
- absorption maximum (in CC#N): 343 nm
- absorption maximum (in CCCCCC): 348 nm
- absorption maximum (in CCOC(C)=O): 333 nm
- absorption maximum (in CO): 332 nm
- absorption maximum (in CS(C)=O): 344 nm
- absorption maximum (in Cc1ccccc1): 344 nm
- absorption maximum (in ClCCl): 342 nm

SMILES: Cc1nc2c(c[n+]1C)CN1C(=O)N([C@H]3O[C@@H](CO)[C@H](O)[C@@H]3O)C=CC1=N2
- absorption maximum (in CC#N): 390 nm
- absorption maximum (in CC(C)=O): 391 nm
- absorption maximum (in CCCCO): 390 nm
- absorption maximum (in CCCO): 390 nm
- absorption maximum (in CCO): 390 nm
- absorption maximum (in CO): 390 nm
- absorption maximum (in O): 384 nm
- absorption maximum (in [2H]OC): 390 nm
- absorption maximum (in [2H]OCC): 390 nm
- absorption maximum (in [2H]O[2H]): 384 nm

SMILES: COc1ccc(C2=C(Br)C(c3ccccc3)=[N+]3C2=Nc2c(-c4ccc(OC)cc4)c(Br)c(-c4ccccc4)n2[B-]3(F)F)cc1
- absorption maximum (in Cc1ccccc1): 654 nm
